Results taken from patent US20030078274A1, “Method of reducing neuronal injury or apoptosis” (priority 1999, published 2003).

Columns and labels:
[1] = system: cytokine-activated astrocytes; assay: NO release (nitrite, Griess reaction) by cytokine-activated astrocytes; assay type: cell-based, Sprague-Dawley rats; settings: in the absence of macrophages/microglia
Protocol: (§1) The model used in the assays described below, i.e., rat cerebrocortical cultures, was prepared from embryos of Sprague-Dawley rats at day 15 to 17 of gestation. See Lei et al., Neuron 8:1087-1099 (1992) and Lipton et al., Nature 364:626-632 (1993). Cultures were used for experiments after 17 to 24 days in culture. These cultures contain neurons, astrocytes, and macrophages/microglia, as determined with specific immunolabeling. Prior to some experiments, macrophages/microglia or neurons were depleted from the cultures by exposure to 7.5 mM L-leucine methyl ester or 2 mM N-methyl-D-aspartate (NMDA), respectively. See Lipton, NeuroReport 3:913-915 (1992). Absence of macrophages/microglia or neurons in these cultures was confirmed immunocytochemically, using antibodies to ED-1 and microtubule-associated protein-2 (MAP-2), respectively. In some experiments, the Griess reaction was used to measure nitrite levels in the culture medium as an index of nitric oxide (NO) release. See Chao et al., Glia 16:276-284 (1996).

[2] = system: neurons in rat cerebrocortical cultures (gp120-induced apoptosis); assay: gp120-induced neuronal apoptosis in rat cerebrocortical cultures; assay type: cell-based, Sprague-Dawley rats; settings: for effect on neuronal apoptosis induced by gp120: gp120 200 pM, 24 h
Protocol: as §1, with “These cultures contain neurons, astrocytes, and macrophages/microglia, as determined with specific immunolabeling.” left out, “Absence of macrophages/microglia or neurons in these cultures was confirmed immunocytochemically, using antibodies to ED-1 and microtubule-associated protein-2 (MAP-2), respectively.” left out
Cultures were transferred into Earle's Balanced Salt Solution (EBSS) and incubated for 24 hours with gp120, chemokines, Tuftsin fragment 1-3, i.e., Thr-Lys-Pro (TKP), p38 MAPK inhibitor SB 203580 (i.e., 4-(4-fluorophenyl)-2-(4-methylsulfinylphenyl)-5-(4-pyridyl)imidazole, Calbiochem, San Diego, Calif.), or combinations thereof. Chemokines or TKP were applied for 5 minutes and SB 203580 for 15 minutes prior to gp120 exposure.
TKP was obtained from Sigma (St. Louis, Mo.). Recombinant human MIP-1β, SDF-1α, SDF-1β, and recombinant rat RANTES were purchased from R&D systems ([…].) and Endogen (Woburn, Mass.), respectively. HIV-1 envelope glycoprotein gp120 from the strain SF2 was obtained from the NIH AIDS Research and Reference Reagent Program, Division of AIDS, NIAID, NIH. See Scandella et al., AIDS Res. Hum. Retroviruses 9:1233-1244 (1993). Additional gp120s from HIV-1 strains IIIB and RF2 were obtained from Genetech and the National Cancer Institute, respectively. TNFα, IFNγ, and IL-1β were from Genzyme (Cambridge, Mass.), Gibco BRL (Grand Island, N.Y.) and Endogen (Woburn, Mass.), respectively.
Neuronal apoptosis in the above-described assays was assessed using a variety of techniques, e.g., staining of permeabilized cells with propidium iodide to determine apoptotic morphology, and a neuron-specific antibody (against NeuN or MAP-2) to identify cell type. In brief, cells were fixed for 5 minutes with ice-cold acetone at −20° C. and, after three washes in PBS, for 4 minutes with 2% (w/v) paraformaldehyde solution in PBS at room temperature (RT). Acetone-paraformaldehyde-fixed cells were permeabilized using 0.2% Tween 20 in PBS (PBST), and non-specific binding sites were blocked by incubation for 1 hour with a 10% solution of heat-inactivated goat serum in PBST. To specifically stain neurons, cells were then incubated for 4 hours at RT or overnight at 4° C. with 1:500 dilutions of anti-MAP-2 (Sigma) or anti-NeuN monoclonal antibody (mAb; Chemicon, Temecula, Calif.). Their respective non-specific isotype antibodies served as controls. After three washes, the cells were incubated in a secondary polyclonal antibody (pAb) conjugated either to fluorescein isothiocyanate (FITC) or to horseradish peroxidase (HRP). In the case of HRP-coupled pAb, diaminobenzidine (DAB) served as the color substrate developed by incubation in a mixture of 1 mg/ml DAB and 0.8% H2O2 at a ratio of 3:1. Cellular nuclei were subsequently stained with […] propidium iodide for 5 minutes in the dark, and then coverslips were mounted on glass slides. Experiments were replicated at least 3 times with triplicate values in each experiment. Statistical significance was judged by an analysis of variance (ANOVA) followed by a Scheffé or Bonferroni/Dunn post hoc test.

[3] = system: neurons (NMDA-induced apoptosis); assay: NMDA-induced neuronal apoptosis in cerebrocortical cultures; assay type: cell-based, Sprague-Dawley rats
Protocol: as §1
(§2) Neuronal apoptosis in the above-described assays was assessed using a variety of techniques, e.g., staining of permeabilized cells with propidium iodide to determine apoptotic morphology, and a neuron-specific antibody (against NeuN or MAP-2) to identify cell type. […]

[4] = system: neurons in rat cerebrocortical cultures (SDF-1-induced apoptosis); assay: SDF-1-induced neuronal apoptosis in rat cerebrocortical cultures; assay type: cell-based, Sprague-Dawley rats; settings: TKP
Protocol: as §1, with “(1996). […]” for “(1996).”
as §2

[5] = system: neurons in rat cerebrocortical cultures; assay: Neuronal apoptosis assay, chemokine alone versus control; assay type: cell-based, Sprague-Dawley rats; settings: α-chemokine 20-50 nM, 24 h
Protocol: as §1, with “(1996). […]” for “(1996).”
as §2

p38 = p38 phosphorylation/activation in retina after axotomy; assay type: in vivo, Long-Evans rats; settings: MK801 intravitreal after axotomy
Protocol: (§3) One day after axotomy, activated (di-phosphorylated) p38 was visualized by immunocytochemistry in the RGC layer, but not in control retinas. By Western blotting, phosphorylated p38 was first detected 12 hours after axotomy and reached a maximum at 24 hours before decreasing. SB 203580 was administered intravitreally at the time of axotomy, and repeated at 5 days and 10 days.
(§4) Drug application. Intravitreal injections were carried out using a 33-gauge needle attached to a 25 μl syringe following pupil dilation with 1% atropine sulfate. The tip of the needle was inserted through the dorsal limbus of the eye under stereomicroscopic visualization. Injections were completed over a period of 1 min. Intravitreal injections of SB 203580 (Calbiochem, San Diego, Calif.), MK801 (Research Biochemicals International, Natick, Mass.) or control solutions (as an equal volume of saline diluent) were performed on operated eyes immediately after axotomy, and repeated 5 and 10 days post axotomy.
Immunohistochemistry. After enucleation, the eyes were immersed in fixative composed of 4% paraformaldehyde in phosphate-buffered saline (PBS; pH 7.4) at 4° C. Ten minutes later, the eyes were hemisected in the fixative, and the anterior segment, lens and vitreous body were discarded. The remaining posterior eyecup was kept in fresh fixative solution overnight at 4° C. The eyecup was then embedded in paraffin. […]

[6] = system: retinal ganglion cells (RGCs); assay: Optic nerve axotomy model of glaucoma: RGC survival in vivo; design: species or system Long-Evans rats; settings: MK801 intravitreal; 14 days post axotomy
Excerpt: As a model for studying treatment of glaucoma, damaged (axotomized) retinal ganglion cells were employed. Specifically, transection of the optic nerve close to the cell body causes apoptotic death of retinal ganglion cells (RGCs), similar to that found in glaucoma. […] Three days later, the left optic nerve was intraorbitally transected 1 mm from the globe. One day after axotomy, no remarkable change in the fluorescence pattern of RGCs was seen compared to that of controls. RGC density, as assessed by the number of fluorescently-labeled cells, began to decline between 4 and 7 days post axotomy. By 14 days, a substantial number of fluorescently-labeled RGCs appeared to have been lost. Morphologically, in whole-mounted retinas stained with cresyl violet, ganglion cell layer (GCL) of unlesioned control retinas manifest no apoptotic profiles or pyknotic nuclei. In contrast, by 10 days after axotomy, multiple degenerating cell bodies with pyknotic nuclei were apparent in the GCL, and the cell density in this layer appeared to be greatly diminished. When hydroxystilbamidine fluorescence in the GCL was quantified, in unlesioned control retinas the mean RGC density was 2533±104 cells/mm^2 (mean±SD). Within 14 days of axotomy, the mean RGC density decreased to 348±107 (14% of control).
as §3
Retrograde labeling of retinal ganglion cells. Adult male Long-Evans rats weighing 200 to 250 g were obtained from a local breeder and, for all experimental manipulations, were anesthetized with 1-2% isoflurane and 70% N2O. RGCs were retrogradely labeled with hydroxystilbamidine (Molecular Probes, Eugene, Oreg., also known as Fluoro-Gold™) to allow accurate counting of cell bodies as described in Vorwerk et al., Invest. Ophthalmol. Vis. Sci. 40:813-816. Rats were anesthetized and placed in a small stereotactic instrument. The skull was exposed and kept dry. The bregma was identified and marked, and a small window was drilled above the right hemisphere, leaving the dura intact.
Axotomy. Optic nerve axotomy was performed on the left eye 4 days after retrograde labeling. After incision of the dorsolateral conjunctiva, the lateral extraocular muscle was transected, and the optic nerve was exposed under a stereoscopic microscope. The optic nerve was then transected at a distance of about 1 mm from the eye bulb. During the operation, care was taken to avoid damage to the retinal blood supply.
as §4
Quantification of axotomized RGC survival and histology. […]

[7] = β-chemokine at 20 nM applied 5 min before gp120

## Thr-Lys-Pro [TKP]
[1]
  effect on NO release by cytokine-activated astrocytes: did not inhibit NO release
[2]; TKP 50 μM, applied 5 min before gp120
  effect on gp120-induced neuronal apoptosis: protected neurons from gp120-induced apoptosis
[3]
  effect on NMDA-induced neuronal apoptosis: did not interfere
[4]
  effect on SDF-1β-induced neuronal apoptosis: not abrogated

## RANTES
[2]; [7]
  effect on neuronal apoptosis induced by gp120: abrogated

## COc1cccc(-c2cc(=O)c3ccccc3o2)c1N [PD 98059, 2′-amino-3′-methoxyflavone]
[2]; PD 98059 2 μM
  effect on gp120SF2-induced neuronal apoptosis: only SB 203580 substantially attenuated

## SDF-1α
[5]
  increase in neuronal apoptosis compared to control: approximately 2 fold
[2]; α-chemokine at 20-50 nM
  effect on neuronal apoptosis induced by gp120: did not reduce neuronal damage or apoptosis

## C[C@]12N[C@H](Cc3ccccc31)c1ccccc12 [MK801]
p38
  p38 phosphorylation/activation: inhibited p38 phosphorylation/activation in a dose-dependent manner
[6]
  number of surviving RGCs: increased the number of surviving RGCs

## S=C(S)N1CCCC1 [PDTC, pyrrolidine dithiocarbamate]
[2]; PDTC 5 μM
  effect on gp120SF2-induced neuronal apoptosis: only SB 203580 substantially attenuated

B1: MIP-1β: recombinant human MIP-1β, β-chemokine (protein, UniProt P13236 24-92, looked up)
C-C motif chemokine 4: APMGSDPPTACCFSYTARKLPRNFVVDYYETSSLCSQPAVVFQTKRSKQVCADPSESWVQEYVYDLELN
[2]; [7]
  effect on neuronal apoptosis induced by gp120: abrogated
